Ends that are not written are not given here.

One assay has as its system PC12h cells. As to the kind of experiment: c-AMP-producing activity: c-AMP secreted by PC12h cells, radioimmunoassay kit. It counts as cell-based, rat. To be noted: sample added, 37° C. for 2 hours, c-AMP in culture solution, FIG. 1. The procedure: In the present invention, c-AMP producing activity was assayed by determining the amount of c-AMP secreted out of cells with a radioimmunoassay kit for measuring c-AMP, using subcultured cell PC12h of rat adrenal medulla origin.
Established cells derived from adrenal medullas, PC12h, were cultivated in Dulbecco's modified Eagle's medium containing 10% semi-fetal calf serum at 37° C. A 48-well collagen-treated plate was inoculated with 5×10^4 cells per well, and cultivation was conducted for 7 to 10 days. Then, the culture medium was exchanged for 500 μl of Hank's balanced salt solution, followed by standing at 37° C. for 30 minutes. A sample to be tested dissolved in the same solution was added thereto, and cultivation was conducted at 37° C. for 2 hours. Subsequently, the amount of c-AMP in this culture solution was assayed by using a kit for measuring c-AMP (Amersham Inc.).

Assay [1] concerns neuronal cell death induced by the gp120 envelope glycoprotein of the AIDS virus. Particulars: known property of VIP; cited from earlier work.
For assay [2] the following is noted: background art; cited from earlier work.

“vasoactive intestinal peptide (HSDAVFTDNYTRLRKQMAVKKYLNSILN; ends and bridges not checked; UniProt P01282 125-152, looked up) [VIP, 68% homology with PACAP-27-NH2]”: the results for the c-AMP-producing activity entry (with PC12h cells; in assay [2]) were “weak” and “very weak”, respectively. The “protection of neurons from cell death induced by gp120” value in assay [1] is given as “capable of protecting neurons from cell death”.
